This is an account of results in PubChem BioAssay (NCI).

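How tested: cells in 96-well plates exposed to compound for 48 hours at five concentrations. At the GI50, growth is halved. TGI marks complete inhibition of growth.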

Among the test systems are KM12 colon; MCF7 breast; SF-295 CNS; SNB-75 CNS; MOLT-4 leukemia; NCI-H522 lung; HOP-92 NSCLC; HL-60(TB) leukemia; 786-0 renal; LOX IMVI melanoma.
What all share (experiment): growth of human tumour cells (NCI), 48 h

With `COc1ccc(-c2nc(Nc3cc(C)[nH]n3)c3ccccc3n2)cc1`, the GI50 in the assay with KM12 colon was 0.0994 µM; with MCF7 breast, 1.71 µM; with SF-295 CNS it was 2.61 µM; with SNB-75 CNS, 0.289 µM; with MOLT-4 leukemia, 3.67 µM; with NCI-H522 lung it was 1.67 µM. The GI50 is 0.621 µM in the assay on HOP-92 NSCLC, 1.58 µM with HL-60(TB) leukemia and 1.27 µM in the assay on 786-0 renal. Also, the TGI in the assay on KM12 colon is 29.1 µM; in the assay with MCF7 breast, 44.6 µM; with SF-295 CNS, over 71.4 µM; in the assay with SNB-75 CNS it was 2.27 µM; in the assay with MOLT-4 leukemia, 58.5 µM; in the assay with NCI-H522 lung, 19.8 µM. Besides, the TGI is 3.77 µM with HOP-92 NSCLC, over 35.2 µM in the assay on HL-60(TB) leukemia and over 31.3 µM in the assay on 786-0 renal.
Turning to `CO[C@H]1CC(O[C@@H]2/C(C)=C/C[C@@H]3C[C@@H](C[C@]4(C=C[C@H](C)[C@@H](C5CCCCC5)O4)O3)OC(=O)[C@@H]3C=C(C)[C@@H](O)[C@H]4OC/C(=C\C=C\[C@@H]2C)[C@]43O)O[C@@H](C)C1O[C@H]1C[C@H](OC)[C@@H](O)[C@H](C)O1` (stereo partly specified), the GI50 was 1.77 µM in the assay on KM12 colon; 1.82 µM in the assay on MCF7 breast; 1.33 µM in the assay with SF-295 CNS; 1.45 µM in the assay with SNB-75 CNS; 2.05 µM with MOLT-4 leukemia; 0.301 µM in the assay on HOP-92 NSCLC. Moreover, the GI50 with 786-0 renal is 1.54 µM. Further, the TGI worked out at 3.54 µM with KM12 colon; 5.84 µM in the assay with MCF7 breast; 2.83 µM with SF-295 CNS; 3.6 µM in the assay on SNB-75 CNS; 4.83 µM in the assay with MOLT-4 leukemia; 1.89 µM with HOP-92 NSCLC. The TGI with 786-0 renal stood at 3.14 µM.
For `COc1cccc(OC(=O)c2ccc(C(F)(F)F)nc2Nc2cc(Cl)ccc2C)c1`, the GI50 in the assay with LOX IMVI melanoma is 3.68 µM; in the assay on KM12 colon it was 20.6 µM; in the assay with MCF7 breast, 4.2 µM; with SF-295 CNS, 23.9 µM; with SNB-75 CNS, 9.04 µM; in the assay on MOLT-4 leukemia it was 3.11 µM. Further, the GI50 is 10 µM in the assay on NCI-H522 lung, 1.63 µM in the assay on HOP-92 NSCLC and 10.7 µM in the assay on 786-0 renal. Moreover, the TGI in the assay on LOX IMVI melanoma was 23.8 µM; with KM12 colon, 50 µM; with MCF7 breast, over 100 µM; with SF-295 CNS it was 48.2 µM; in the assay on SNB-75 CNS, over 100 µM; in the assay on MOLT-4 leukemia, 7.99 µM. In addition, the TGI in the assay on NCI-H522 lung is 71.3 µM; with HOP-92 NSCLC it was 6.98 µM; in the assay with 786-0 renal, 24.5 µM.
As to `COc1ccc2cc1Oc1ccc(cc1)C[C@H]1c3c(cc4c(c3Oc3cc5c(cc3OC)CCN(C)[C@@H]5C2)OCO4)CCN1C`, the GI50 with LOX IMVI melanoma was 0.702 µM; in the assay on KM12 colon, 4.83 µM; in the assay on MCF7 breast it was 1.85 µM; in the assay with SNB-75 CNS, 5.27 µM; in the assay with MOLT-4 leukemia it was 3.92 µM; in the assay with NCI-H522 lung, 1.43 µM. Moreover, the GI50 in the assay on HOP-92 NSCLC is 1.3 µM; in the assay with HL-60(TB) leukemia it was 3.54 µM; with 786-0 renal, 5.57 µM. The TGI with LOX IMVI melanoma came to 1.52 µM; in the assay with KM12 colon, 13.2 µM; in the assay with MCF7 breast it was 7.4 µM; in the assay with SNB-75 CNS, 11.4 µM; with MOLT-4 leukemia it was 12.9 µM; in the assay with NCI-H522 lung, 6.77 µM. Besides, the TGI with HOP-92 NSCLC was determined as 11.8 µM; with HL-60(TB) leukemia it was 11.9 µM; with 786-0 renal, 12 µM.
Take `FC(F)(F)c1ccc(-c2cnc(-c3ncon3)nc2NC2CCCCCC2)cc1`: the GI50 with KM12 colon is 36.3 µM; with MCF7 breast it was 31.6 µM; in the assay with SF-295 CNS, 34.5 µM; in the assay with SNB-75 CNS it was 50.5 µM; in the assay with MOLT-4 leukemia, 19.8 µM; with NCI-H522 lung it was 14.2 µM. Further, the GI50 was 22.3 µM with HL-60(TB) leukemia and 63.6 µM in the assay on 786-0 renal. Also, the TGI is over 100 µM with KM12 colon; over 100 µM in the assay on MCF7 breast; over 100 µM with SF-295 CNS; over 100 µM in the assay on SNB-75 CNS; 55 µM in the assay on MOLT-4 leukemia; 82.6 µM in the assay with NCI-H522 lung. The figures for the TGI in the assay with HL-60(TB) leukemia and in the assay with 786-0 renal were 48 µM and over 100 µM, respectively.
As for `N#Cc1c(N2CCOCC2)nc(=S)[nH]c1-c1ccco1`, the GI50 in the assay with LOX IMVI melanoma was 6.68 µM; with KM12 colon it was 10.4 µM; with MCF7 breast, 2.12 µM; in the assay with SNB-75 CNS, 2.15 µM; with MOLT-4 leukemia, 4.64 µM; with NCI-H522 lung, 3.95 µM. For the same compound, the GI50 is 1.79 µM in the assay on HOP-92 NSCLC, 4.26 µM in the assay on HL-60(TB) leukemia and 6.2 µM in the assay on 786-0 renal. Besides, the TGI in the assay with LOX IMVI melanoma was over 100 µM; in the assay with KM12 colon, over 100 µM; in the assay on MCF7 breast, over 100 µM; with SNB-75 CNS, 55.6 µM; in the assay on MOLT-4 leukemia, 51.1 µM; in the assay with NCI-H522 lung, over 100 µM. Also, the figures for the TGI with HOP-92 NSCLC, with HL-60(TB) leukemia and in the assay with 786-0 renal were over 100 µM, over 100 µM and 80.8 µM, respectively.
As to `O=C1OC(=O)C(=C\c2ccc3c(c2)OCO3)/C1=C/c1ccc2c(c1)OCO2`, the TGI in the assay with LOX IMVI melanoma, in the assay on KM12 colon, in the assay with MCF7 breast, in the assay with SF-295 CNS, in the assay with MOLT-4 leukemia and in the assay on NCI-H522 lung was over 100 µM each time. For the same compound, the TGI in the assay with HOP-92 NSCLC is over 100 µM; with HL-60(TB) leukemia, over 88.1 µM; in the assay with 786-0 renal it was over 100 µM.
Turning to `O=C(/C=C\c1cccc([N+](=O)[O-])c1)/C=C/c1cccc([N+](=O)[O-])c1`, the GI50 with LOX IMVI melanoma was 1.73 µM; in the assay on KM12 colon, 1.73 µM; with MCF7 breast, 0.655 µM; with SF-295 CNS, 2.37 µM; in the assay on SNB-75 CNS, 13.3 µM; with NCI-H522 lung, 2.79 µM. Further, the GI50 with HOP-92 NSCLC is 9.92 µM; in the assay with 786-0 renal, 5.05 µM. Also, the TGI in the assay with LOX IMVI melanoma turned out to be 4.56 µM; with KM12 colon, 3.3 µM; with MCF7 breast, 6.68 µM; with SF-295 CNS, 7.77 µM; in the assay with SNB-75 CNS, 66.6 µM; with NCI-H522 lung it was 10.9 µM. In addition, the TGI stood at 43.9 µM in the assay on HOP-92 NSCLC and 22.1 µM in the assay on 786-0 renal.
On to `COc1cc2c(cc1C1COc3cc4occc4cc3C1=O)OCO2` (stereo unspecified), for which the TGI in the assay on LOX IMVI melanoma, in the assay with KM12 colon, in the assay on MCF7 breast, in the assay on SF-295 CNS, in the assay on SNB-75 CNS and in the assay with MOLT-4 leukemia was over 100 µM in each case. Further, the TGI in the assay on NCI-H522 lung, with HOP-92 NSCLC and with 786-0 renal was over 100 µM each time.
